Assays:
[1] = system: YH-13 (Glioblastoma); assay: combination Emax (second highest fraction inhibited in the dose matrix, 72 h); higher = more inhibition; extreme values may be limits of the assay
Outline: (§1)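 Bliss excess equals the observed combination effect minus the expected value EA + EB − EA·EB, where EA and EB are the effects of each agent alone. Combination Emax is the second-highest inhibition within the matrix. Inhibition was scaled from CellTiter-Glo 2.0 luminescence, with 0 set by vehicle wells and 1 by blank wells, after 72 hours of two-drug dosing of cells plated in 1536-well plates.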

[2] = system: NB69 (Neuroblastoma); assay: as above
Outline: as §1

[3] = system: Caov-4 (Ovarian Carcinoma); assay: as above
Outline: as §1

[4] = system: UACC-62 (Melanoma); assay: as above
Outline: as §1

[5] = system: NCI-H727 (Other Solid Carcinomas); assay: as above
Outline: as §1

[6] = system: TGW (Neuroblastoma); assay: as above
Outline: as §1

[7] = system: EoL-1-cell (Acute Myeloid Leukemia); assay: as above
Outline: as §1

[8] = system: ACHN (Kidney Carcinoma); assay: as above
Outline: as §1

[9] = system: PANC-04-03 (Pancreatic Carcinoma); assay: as above
Outline: as §1

[10] = system: Ca9-22 (Head and Neck Carcinoma); assay: as above
Outline: as §1

[11] = system: NEC8 (Other Solid Carcinomas); assay: Bliss excess, mean over the matrix (fraction); higher = more synergy
Outline: as §1

[12] = system: SU8686 (Pancreatic Carcinoma); assay: as above
Outline: as §1

[13] = system: OVCAR-4 (Ovarian Carcinoma); assay: as above
Outline: as §1

[14] = system: C-4-I (Cervical Carcinoma); assay: as above
Outline: as §1

[15] = system: HGC-27 (Gastric Carcinoma); assay: as above
Outline: as §1

[16] = system: SCC-15 (Oral Cavity Carcinoma); assay: as above
Outline: as §1

[17] = system: HSC-4 (Oral Cavity Carcinoma); assay: as above
Outline: as §1

[18] = system: OSC-20 (Oral Cavity Carcinoma); assay: as above
Outline: as §1

[19] = system: NUGC-3 (Gastric Carcinoma); assay: as above
Outline: as §1

[20] = system: HOP-62 (Lung Adenocarcinoma); assay: as above
Outline: as §1

Structure (SMILES) | combination Emax [1] | combination Emax [2] | combination Emax [3] | combination Emax [4] | combination Emax [5] | combination Emax [6] | combination Emax [7] | combination Emax [8] | combination Emax [9] | combination Emax [10] | Bliss excess [11] | Bliss excess [12] | Bliss excess [13] | Bliss excess [14] | Bliss excess [15] | Bliss excess [16] | Bliss excess [17] | Bliss excess [18] | Bliss excess [19] | Bliss excess [20]
CN(CCO)CC[C@H](CSc1ccccc1)Nc1ccc(S(=O)(=O)NC(=O)c2ccc(N3CCC([C@@H](O)c4ccccc4-c4ccc(Cl)cc4)CC3)cc2)cc1S(=O)(=O)C(F)(F)F [AZD4320] + C1CN(CCC1(C(=O)N[C@@H](CCO)C2=CC=C(C=C2)Cl)N)C3=NC=NC4=C3C=CN4 [Capivasertib] (first compound max 1 µM, 7x7, partner max 3 µM) | 0.266 | 0.652 | 0.131 | 0.341 | 0.484 | 0.924 | 1 | 0.121 | 0.178 | 0.301 | -0.0356 | -0.0385 | -0.0417 | -0.0101 | -0.0252 | -0.0606 | -0.0269 | -0.0513 | -0.039 | -0.0414
CN(CCO)CC[C@H](CSc1ccccc1)Nc1ccc(S(=O)(=O)NC(=O)c2ccc(N3CCC([C@@H](O)c4ccccc4-c4ccc(Cl)cc4)CC3)cc2)cc1S(=O)(=O)C(F)(F)F [AZD4320] + C=CCn1c(=O)c2cnc(Nc3ccc(N4CCN(C)CC4)cc3)nc2n1-c1cccc(C(C)(C)O)n1 [AZD1775] (first compound max 1 µM, partner max 1 µM) | 0.449 | 0.952 | 0.857 | 0.71 | 0.515 | 1 | 1 | 0.986 | 0.486 | 0.851 | 0.0272 | -0.0598 | -0.0068 | 0.0656 | -0.018 | 0.0336 | 0.023 | -0.0933 | -0.0346 | -0.0356
CN(CCO)CC[C@H](CSc1ccccc1)Nc1ccc(S(=O)(=O)NC(=O)c2ccc(N3CCC([C@@H](O)c4ccccc4-c4ccc(Cl)cc4)CC3)cc2)cc1S(=O)(=O)C(F)(F)F [AZD4320] + CCN(CCO)CCCOc1ccc2c(Nc3cc(CC(=O)Nc4cccc(F)c4)[nH]n3)ncnc2c1 [AZD2811] (first compound max 1 µM, 7x7, partner max 1 µM) | 0.704 | 0.902 | 0.448 | 0.201 | 0.512 | 0.928 | 1 | 0.207 | 0.138 | 0.572 | -0.0138 | -0.03 | 0.045 | 0.0557 | 0.032 | 0.0101 | -0.0335 | -0.062 | 0.0077 | -0.0197
CN(CCO)CC[C@H](CSc1ccccc1)Nc1ccc(S(=O)(=O)NC(=O)c2ccc(N3CCC([C@@H](O)c4ccccc4-c4ccc(Cl)cc4)CC3)cc2)cc1S(=O)(=O)C(F)(F)F [AZD4320] + C[C@@H]1COCCN1C2=NC(=NC(=C2)C3(CC3)[S@](=N)(=O)C)C4=C5C=CNC5=NC=C4 [AZD6738] (first compound max 1 µM, 7x7, partner max 10 µM) | 0.568 | 0.959 | 0.874 | 0.7 | 0.695 | 0.949 | 1 | 0.986 | 0.461 | 0.969 | -0.0089 | -0.0222 | -0.0392 | 0.0036 | -0.0321 | 0.0475 | 0.12 | -0.0694 | -0.0445 | -0.0483
CN(CCO)CC[C@H](CSc1ccccc1)Nc1ccc(S(=O)(=O)NC(=O)c2ccc(N3CCC([C@@H](O)c4ccccc4-c4ccc(Cl)cc4)CC3)cc2)cc1S(=O)(=O)C(F)(F)F [AZD4320] + C[C@@H](Nc1cc(F)cc(F)c1)c1cc(C(=O)N(C)C)cc2c(=O)cc(N3CCOCC3)oc12 [AZD8186] (first compound max 1 µM, 7x7, partner max 3 µM) | 0.694 | 0.97 | 0.461 | 0.67 | 0.378 | 0.968 | 1 | 0.252 | 0.257 | 0.648 | 0.0171 | -0.0031 | 0.0154 | 0.0681 | -0.0272 | -0.0179 | -0.12 | 0.0146 | -0.0383 | -0.0226
CN(CCO)CC[C@H](CSc1ccccc1)Nc1ccc(S(=O)(=O)NC(=O)c2ccc(N3CCC([C@@H](O)c4ccccc4-c4ccc(Cl)cc4)CC3)cc2)cc1S(=O)(=O)C(F)(F)F [AZD4320] + Cc1cc2ncnn2cc1Nc1ncc2c(n1)n(C1CCOCC1)c(=O)n2C [AZD7648] (first compound max 1 µM, 7x7, partner max 10 µM) | 0.227 | 0.801 | – | 0.248 | 0.198 | 0.979 | 1 | 0.162 | 0.229 | 0.163 | 0.0104 | -0.0355 | -0.0412 | -0.0082 | -0.0473 | -0.0152 | -0.0592 | -0.0548 | -0.0234 | -0.0479
CN(CCO)CC[C@H](CSc1ccccc1)Nc1ccc(S(=O)(=O)NC(=O)c2ccc(N3CCC([C@@H](O)c4ccccc4-c4ccc(Cl)cc4)CC3)cc2)cc1S(=O)(=O)C(F)(F)F [AZD4320] + Cn1cnc2c(F)c(Nc3ccc(Br)cc3Cl)c(C(=O)NOCCO)cc21 [Selumetinib] (first compound max 1 µM, 7x7, partner max 3 µM) | 0.511 | 0.998 | 0.617 | 0.868 | 0.973 | 0.97 | 1 | 0.346 | 0.406 | 0.593 | 0.021 | -0.0002 | 0.0108 | 0.135 | 0.0579 | 0.042 | 0.0732 | 0.0488 | 0.104 | -0.0508
Cc1cc2ncnn2cc1Nc1ncc2c(n1)n(C1CCOCC1)c(=O)n2C [AZD7648] + C=CCn1c(=O)c2cnc(Nc3ccc(N4CCN(C)CC4)cc3)nc2n1-c1cccc(C(C)(C)O)n1 [AZD1775] (first compound max 10 µM, partner max 1 µM) | 0.449 | 0.887 | 0.922 | 0.536 | 0.351 | 0.732 | 0.978 | 0.893 | 0.555 | 0.734 | 0.0004 | -0.0542 | -0.0108 | -0.015 | -0.012 | 0.0938 | -0.0082 | -0.0252 | 0.0165 | -0.0093
Cc1cc2ncnn2cc1Nc1ncc2c(n1)n(C1CCOCC1)c(=O)n2C [AZD7648] + CCN(CCO)CCCOc1ccc2c(Nc3cc(CC(=O)Nc4cccc(F)c4)[nH]n3)ncnc2c1 [AZD2811] (first compound max 10 µM, 7x7, partner max 1 µM) | 0.482 | 0.655 | 0.445 | 0.312 | 0.287 | 0.351 | 0.984 | 0.329 | 0.284 | 0.3 | -0.0082 | -0.0135 | -0.0035 | 0.048 | -0.0685 | 0.071 | 0.0036 | -0.0209 | -0.0046 | 0.0126
Cc1cc2ncnn2cc1Nc1ncc2c(n1)n(C1CCOCC1)c(=O)n2C [AZD7648] + CN(C)CCCOc1ccc(-c2ccc3ncc4c(c3c2)n(C2CCOCC2)c(=O)n4C)cn1 [AZD0156] (first compound max 10 µM, 7x7, partner max 1 µM) | 0.345 | 0.565 | 0.344 | 0.302 | 0.294 | 0.351 | 0.238 | 0.293 | 0.347 | 0.226 | -0.0007 | -0.0144 | -0.0126 | 0.0099 | 0.0101 | 0.0215 | -0.0154 | -0.0082 | -0.0262 | -0.0173
Cc1cc2ncnn2cc1Nc1ncc2c(n1)n(C1CCOCC1)c(=O)n2C [AZD7648] + C[C@@H]1COCCN1C2=NC(=NC(=C2)C3(CC3)[S@](=N)(=O)C)C4=C5C=CNC5=NC=C4 [AZD6738] (first compound max 10 µM, 7x7, partner max 10 µM) | 0.656 | 0.865 | 0.916 | 0.624 | 0.545 | 0.739 | 0.967 | 0.888 | 0.522 | 0.919 | 0.0119 | -0.0289 | -0.0053 | 0.0255 | -0.0265 | 0.0975 | -0.0165 | 0.0065 | -0.0657 | -0.0009
Cc1cc2ncnn2cc1Nc1ncc2c(n1)n(C1CCOCC1)c(=O)n2C [AZD7648] + O=C(c1cc(Cc2n[nH]c(=O)c3ccccc23)ccc1F)N1CCN(C(=O)C2CC2)CC1 [Olaparib] (first compound max 10 µM, 7x7, partner max 10 µM) | 0.16 | 0.541 | 0.199 | 0.253 | 0.218 | 0.344 | 0.42 | 0.211 | 0.183 | 0.113 | 0.0327 | -0.0457 | -0.0214 | 0.005 | -0.0092 | -0.0408 | -0.0448 | 0.0194 | -0.0175 | -0.0528
